ChEMBL document CHEMBL3621085, “Tetrazole regioisomers in the development of nitro group-containing antitubercular agents” (Medchemcomm, 2015)
≈ marks a conversion by molar mass, not a printed value.

Key:
[1] = tested on: Mycobacterium tuberculosis; experiment: Antimycobacterial activity against Mycobacterium tuberculosis My 331/88 after 14 days by micromethod; type: functional; settings: My 331/88, 336 h
[2] = tested on: Mycobacterium avium; experiment: Antimycobacterial activity against Mycobacterium avium My 330/88 after 14 days by micromethod; type: functional; settings: My 330/88, 336 h
[3] = tested on: Mycobacterium tuberculosis; experiment: Antimycobacterial activity against Mycobacterium tuberculosis My 331/88 after 21 days by micromethod; type: functional; settings: My 331/88, 504 h
[4] = tested on: Mycobacterium avium; experiment: Antimycobacterial activity against Mycobacterium avium My 330/88 after 21 days by micromethod; type: functional; settings: My 330/88, 504 h
[5] = tested on: Mycobacterium kansasii; experiment: Antimycobacterial activity against Mycobacterium kansasii My 235/80 after 7 days by micromethod; type: functional; settings: My 235/80, 168 h
[6] = tested on: Mycobacterium kansasii; experiment: Antimycobacterial activity against Mycobacterium kansasii My 235/80 after 14 days by micromethod; type: functional; settings: My 235/80, 336 h
[7] = tested on: Mycobacterium kansasii; experiment: Antimycobacterial activity against Mycobacterium kansasii My 235/80 after 21 days by micromethod; type: functional; settings: My 235/80, 504 h
[8] = tested on: Mycobacterium kansasii; experiment: Antimycobacterial activity against Mycobacterium kansasii 6509/96 after 7 days by micromethod; type: functional; settings: 6509/96, 168 h
[9] = tested on: Mycobacterium kansasii; experiment: Antimycobacterial activity against Mycobacterium kansasii 6509/96 after 14 days by micromethod; type: functional; settings: 6509/96, 336 h
[10] = tested on: Mycobacterium kansasii; experiment: Antimycobacterial activity against Mycobacterium kansasii 6509/96 after 21 days by micromethod; type: functional; settings: 6509/96, 504 h
[11] = Cytotoxicity against CHOK1 cells assessed as viability after 24 hrs by MTT assay; type: cell-based; settings: Cricetulus griseus, CHO-K1, 24 h

Compound | MIC [1] [µM] | MIC [2] [µM] | MIC [3] [µM] | MIC [4] [µM] | MIC [5] [µM] | MIC [6] [µM] | MIC [7] [µM] | MIC [8] [µM] | MIC [9] [µM] | MIC [10] [µM] | IC50 [11] [µM]
O=[N+]([O-])c1ccc(Cn2nnc([Se]Cc3ccccc3)n2)c([N+](=O)[O-])c1 | 1 (≈ 0.419 µg/mL) | 4 (≈ 1.68 µg/mL) | 1 (≈ 0.419 µg/mL) | 8 (≈ 3.35 µg/mL) | 8 (≈ 3.35 µg/mL) | 16 (≈ 6.71 µg/mL) | 16 (≈ 6.71 µg/mL) | 8 (≈ 3.35 µg/mL) | 16 (≈ 6.71 µg/mL) | 32 (≈ 13.4 µg/mL) | –
O=[N+]([O-])c1cc(Cn2nnnc2[Se]Cc2ccccc2)cc([N+](=O)[O-])c1 | 8 (≈ 3.35 µg/mL) | 32 (≈ 13.4 µg/mL) | 8 (≈ 3.35 µg/mL) | 32 (≈ 13.4 µg/mL) | 8 (≈ 3.35 µg/mL) | 16 (≈ 6.71 µg/mL) | 32 (≈ 13.4 µg/mL) | 16 (≈ 6.71 µg/mL) | 32 (≈ 13.4 µg/mL) | 32 (≈ 13.4 µg/mL) | 85
O=[N+]([O-])c1ccc(CSc2nnnn2Cc2ccccc2)c([N+](=O)[O-])c1 | 8 (≈ 2.98 µg/mL) | 250 (≈ 93.1 µg/mL) | 8 (≈ 2.98 µg/mL) | 250 (≈ 93.1 µg/mL) | 8 (≈ 2.98 µg/mL) | 32 (≈ 11.9 µg/mL) | 62 (≈ 23.1 µg/mL) | 16 (≈ 5.96 µg/mL) | 32 (≈ 11.9 µg/mL) | 62 (≈ 23.1 µg/mL) | –
O=[N+]([O-])c1ccc(C[Se]c2nnnn2Cc2ccc([N+](=O)[O-])cc2)cc1 | 62 (≈ 26 µg/mL) | 250 (≈ 105 µg/mL) | 125 (≈ 52.4 µg/mL) | 250 (≈ 105 µg/mL) | 62 (≈ 26 µg/mL) | 125 (≈ 52.4 µg/mL) | 125 (≈ 52.4 µg/mL) | 32 (≈ 13.4 µg/mL) | 62 (≈ 26 µg/mL) | 62 (≈ 26 µg/mL) | –
COc1ccc(C[Se]c2nnnn2Cc2ccc([N+](=O)[O-])cc2[N+](=O)[O-])cc1 | 4 (≈ 1.8 µg/mL) | 125 (≈ 56.2 µg/mL) | 8 (≈ 3.59 µg/mL) | 125 (≈ 56.2 µg/mL) | 16 (≈ 7.19 µg/mL) | 32 (≈ 14.4 µg/mL) | 62 (≈ 27.9 µg/mL) | 4 (≈ 1.8 µg/mL) | 16 (≈ 7.19 µg/mL) | 32 (≈ 14.4 µg/mL) | –
O=[N+]([O-])c1ccc(CSc2nnn(Cc3ccc([N+](=O)[O-])cc3)n2)cc1 | 250 (≈ 93.1 µg/mL) | 250 (≈ 93.1 µg/mL) | 250 (≈ 93.1 µg/mL) | 250 (≈ 93.1 µg/mL) | 250 (≈ 93.1 µg/mL) | 250 (≈ 93.1 µg/mL) | 250 (≈ 93.1 µg/mL) | 250 (≈ 93.1 µg/mL) | 250 (≈ 93.1 µg/mL) | 250 (≈ 93.1 µg/mL) | –
O=[N+]([O-])c1cc(Cn2nnc([Se]Cc3ccccc3)n2)cc([N+](=O)[O-])c1 | 8 (≈ 3.35 µg/mL) | 16 (≈ 6.71 µg/mL) | 8 (≈ 3.35 µg/mL) | 16 (≈ 6.71 µg/mL) | 8 (≈ 3.35 µg/mL) | 16 (≈ 6.71 µg/mL) | 32 (≈ 13.4 µg/mL) | 16 (≈ 6.71 µg/mL) | 32 (≈ 13.4 µg/mL) | 32 (≈ 13.4 µg/mL) | 118
O=[N+]([O-])c1ccc(C[Se]c2nnn(Cc3ccccc3)n2)c([N+](=O)[O-])c1 | 16 (≈ 6.71 µg/mL) | 62 (≈ 26 µg/mL) | 16 (≈ 6.71 µg/mL) | 62 (≈ 26 µg/mL) | 16 (≈ 6.71 µg/mL) | 16 (≈ 6.71 µg/mL) | 32 (≈ 13.4 µg/mL) | 32 (≈ 13.4 µg/mL) | 32 (≈ 13.4 µg/mL) | 62 (≈ 26 µg/mL) | 22
O=[N+]([O-])c1cc(Cn2nnnc2SCc2ccccc2)cc([N+](=O)[O-])c1 | 8 (≈ 2.98 µg/mL) | 125 (≈ 46.5 µg/mL) | 8 (≈ 2.98 µg/mL) | 125 (≈ 46.5 µg/mL) | 32 (≈ 11.9 µg/mL) | 62 (≈ 23.1 µg/mL) | 62 (≈ 23.1 µg/mL) | 16 (≈ 5.96 µg/mL) | 32 (≈ 11.9 µg/mL) | 32 (≈ 11.9 µg/mL) | 115
Cn1nnnc1[Se]Cc1cc([N+](=O)[O-])cc([N+](=O)[O-])c1 | 8 (≈ 2.75 µg/mL) | 500 (≈ 172 µg/mL) | 8 (≈ 2.75 µg/mL) | 500 (≈ 172 µg/mL) | 8 (≈ 2.75 µg/mL) | 32 (≈ 11 µg/mL) | 32 (≈ 11 µg/mL) | 16 (≈ 5.49 µg/mL) | 32 (≈ 11 µg/mL) | 32 (≈ 11 µg/mL) | –
Cn1nnc([Se]Cc2cc([N+](=O)[O-])cc([N+](=O)[O-])c2)n1 | 1 (≈ 0.343 µg/mL) | 250 (≈ 85.8 µg/mL) | 2 (≈ 0.686 µg/mL) | 250 (≈ 85.8 µg/mL) | 2 (≈ 0.686 µg/mL) | 4 (≈ 1.37 µg/mL) | 8 (≈ 2.75 µg/mL) | 2 (≈ 0.686 µg/mL) | 4 (≈ 1.37 µg/mL) | 4 (≈ 1.37 µg/mL) | –
COc1ccc(C[Se]c2nnn(Cc3cc([N+](=O)[O-])cc([N+](=O)[O-])c3)n2)cc1 | 4 (≈ 1.8 µg/mL) | 16 (≈ 7.19 µg/mL) | 8 (≈ 3.59 µg/mL) | 32 (≈ 14.4 µg/mL) | 8 (≈ 3.59 µg/mL) | 16 (≈ 7.19 µg/mL) | 16 (≈ 7.19 µg/mL) | 16 (≈ 7.19 µg/mL) | 32 (≈ 14.4 µg/mL) | 32 (≈ 14.4 µg/mL) | –
O=[N+]([O-])c1ccc(CSc2nnn(Cc3ccccc3)n2)c([N+](=O)[O-])c1 | 4 (≈ 1.49 µg/mL) | 32 (≈ 11.9 µg/mL) | 4 (≈ 1.49 µg/mL) | 62 (≈ 23.1 µg/mL) | 16 (≈ 5.96 µg/mL) | 32 (≈ 11.9 µg/mL) | 62 (≈ 23.1 µg/mL) | 8 (≈ 2.98 µg/mL) | 16 (≈ 5.96 µg/mL) | 32 (≈ 11.9 µg/mL) | 21
O=[N+]([O-])c1cc(CSc2nnn(Cc3ccc(Cl)c(Cl)c3)n2)cc([N+](=O)[O-])c1 | 1 (≈ 0.441 µg/mL) | 125 (≈ 55.2 µg/mL) | 1 (≈ 0.441 µg/mL) | 125 (≈ 55.2 µg/mL) | 8 (≈ 3.53 µg/mL) | 16 (≈ 7.06 µg/mL) | 32 (≈ 14.1 µg/mL) | 16 (≈ 7.06 µg/mL) | 32 (≈ 14.1 µg/mL) | 32 (≈ 14.1 µg/mL) | 150
